Where a SMILES comes first, the peptide text is derived from it. Bridges are numbered along the chain shown (N, C = ends). [ ]: non-standard residue; d: D form. The star is where a group is joined. Threoninol(2S,3R) = C[C@@H](O)[C@H](CO)N*
How the values were obtained:
[1] = DRUGMATRIX: Calcium Channel Type L, Phenylalkylamine radioligand binding (ligand: [3H] (-)-Desmethoxyverapamil (D-888)); format: cell membranes, Rattus norvegicus, Wistar, Brain, Membrane; details: Not Active = under 50% inhibition at 10 µM
[2] = molecular target: Vasopressin V1a receptor (Homo sapiens, UniProt P37288); format: cell membranes, Membrane; details: hek293; note: in other assays of this panel Not Active means under 50% inhibition at 10 µM
[3] = molecular target: Protein phosphatase 3 catalytic subunit alpha (Homo sapiens, UniProt Q08209); set-up: species or system Escherichia coli;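 note: inhibition of calcineurin (PP2B) enzyme activity, measured with DiFMUP as the substrate; in other assays of this panel Not Active means under 50% inhibition at 10 µM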
[4] = molecular target: T1, Angiotensin-converting enzyme (Oryctolagus cuniculus, UniProt P12822); format: tissue-based, Lung;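 note: enzymatic inhibition of angiotensin-converting enzyme measured with FAPGG as the substrate; in other assays of this panel Not Active means under 50% inhibition at 10 µM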
T1 sequence (P12822 whole entry): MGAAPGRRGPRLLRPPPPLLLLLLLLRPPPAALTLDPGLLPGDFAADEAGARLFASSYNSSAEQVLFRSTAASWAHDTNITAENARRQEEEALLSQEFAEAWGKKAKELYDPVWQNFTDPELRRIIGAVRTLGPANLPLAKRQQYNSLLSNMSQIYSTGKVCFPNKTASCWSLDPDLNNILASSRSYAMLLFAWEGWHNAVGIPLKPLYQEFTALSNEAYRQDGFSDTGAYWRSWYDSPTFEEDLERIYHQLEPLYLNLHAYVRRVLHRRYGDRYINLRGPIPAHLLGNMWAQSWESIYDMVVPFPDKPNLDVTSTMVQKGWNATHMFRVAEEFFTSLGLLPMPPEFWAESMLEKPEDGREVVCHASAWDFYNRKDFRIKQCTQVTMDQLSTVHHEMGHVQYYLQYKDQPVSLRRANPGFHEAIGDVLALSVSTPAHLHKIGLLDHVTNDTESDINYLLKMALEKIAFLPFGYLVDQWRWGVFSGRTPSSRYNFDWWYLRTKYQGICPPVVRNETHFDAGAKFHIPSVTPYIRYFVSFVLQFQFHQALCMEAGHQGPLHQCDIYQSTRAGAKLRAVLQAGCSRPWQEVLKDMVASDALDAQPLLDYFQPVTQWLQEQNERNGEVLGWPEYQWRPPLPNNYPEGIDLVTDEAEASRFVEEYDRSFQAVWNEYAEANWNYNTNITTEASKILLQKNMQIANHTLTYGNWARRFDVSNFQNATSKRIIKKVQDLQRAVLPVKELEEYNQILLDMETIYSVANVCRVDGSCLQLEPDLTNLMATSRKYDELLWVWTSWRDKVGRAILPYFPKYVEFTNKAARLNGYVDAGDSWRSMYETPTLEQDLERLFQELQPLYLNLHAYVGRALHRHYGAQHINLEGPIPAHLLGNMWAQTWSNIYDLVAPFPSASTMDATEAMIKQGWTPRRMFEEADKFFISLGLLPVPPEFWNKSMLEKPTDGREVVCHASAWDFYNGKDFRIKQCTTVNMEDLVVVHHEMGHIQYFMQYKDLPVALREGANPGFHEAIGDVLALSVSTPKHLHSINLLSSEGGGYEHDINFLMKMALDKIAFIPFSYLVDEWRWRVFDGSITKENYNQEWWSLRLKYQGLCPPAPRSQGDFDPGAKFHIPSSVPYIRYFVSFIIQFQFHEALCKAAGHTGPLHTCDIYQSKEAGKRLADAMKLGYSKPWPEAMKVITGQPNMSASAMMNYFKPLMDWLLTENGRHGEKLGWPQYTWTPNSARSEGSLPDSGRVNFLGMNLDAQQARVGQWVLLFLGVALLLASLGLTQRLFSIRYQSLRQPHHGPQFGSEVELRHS

[5] = molecular target: Adenosine receptor A2a (Homo sapiens, UniProt P29274); experiment: DRUGMATRIX: Adenosine A2A radioligand binding (ligand: […]); format: cell membranes, HEK293, Membrane; details: hek293; Not Active = under 50% inhibition at 10 µM
[6] = molecular target: Histamine H2 receptor (Homo sapiens, UniProt P25021); format: cell membranes, CHO-K1, Membrane; details: cho-k1; note: in other assays of this panel Not Active means under 50% inhibition at 10 µM
[7] = molecular target: 5-hydroxytryptamine receptor 6 (Homo sapiens, UniProt P50406); format: cell membranes, HeLa, Membrane; details: hela; note: in other assays of this panel Not Active means under 50% inhibition at 10 µM
Chain of 5-hydroxytryptamine receptor 6 (P50406 whole entry): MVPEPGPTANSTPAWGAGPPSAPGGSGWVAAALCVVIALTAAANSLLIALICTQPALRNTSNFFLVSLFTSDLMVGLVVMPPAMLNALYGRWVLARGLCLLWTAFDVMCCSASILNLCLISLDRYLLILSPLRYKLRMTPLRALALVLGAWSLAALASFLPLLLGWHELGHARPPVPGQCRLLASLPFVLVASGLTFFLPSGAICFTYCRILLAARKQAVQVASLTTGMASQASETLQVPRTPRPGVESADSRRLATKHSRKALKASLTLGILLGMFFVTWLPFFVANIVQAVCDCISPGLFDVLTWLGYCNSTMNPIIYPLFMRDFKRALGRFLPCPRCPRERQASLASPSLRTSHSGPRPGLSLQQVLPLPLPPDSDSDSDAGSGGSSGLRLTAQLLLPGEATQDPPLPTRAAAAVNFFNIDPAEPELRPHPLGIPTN

Chain of Adenosine receptor A2a (P29274 whole entry): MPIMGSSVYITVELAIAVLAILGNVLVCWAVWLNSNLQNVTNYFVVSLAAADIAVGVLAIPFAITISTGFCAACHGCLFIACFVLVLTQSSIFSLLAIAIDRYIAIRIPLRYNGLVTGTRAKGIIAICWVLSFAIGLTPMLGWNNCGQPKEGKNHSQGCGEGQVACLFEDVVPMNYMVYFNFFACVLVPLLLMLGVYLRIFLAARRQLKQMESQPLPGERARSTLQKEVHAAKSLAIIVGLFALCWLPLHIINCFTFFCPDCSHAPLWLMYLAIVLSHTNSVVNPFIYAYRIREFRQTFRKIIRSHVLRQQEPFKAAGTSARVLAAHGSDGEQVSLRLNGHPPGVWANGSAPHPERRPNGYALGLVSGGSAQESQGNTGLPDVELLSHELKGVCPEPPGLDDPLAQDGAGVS
Chain of Vasopressin V1a receptor (P37288 whole entry): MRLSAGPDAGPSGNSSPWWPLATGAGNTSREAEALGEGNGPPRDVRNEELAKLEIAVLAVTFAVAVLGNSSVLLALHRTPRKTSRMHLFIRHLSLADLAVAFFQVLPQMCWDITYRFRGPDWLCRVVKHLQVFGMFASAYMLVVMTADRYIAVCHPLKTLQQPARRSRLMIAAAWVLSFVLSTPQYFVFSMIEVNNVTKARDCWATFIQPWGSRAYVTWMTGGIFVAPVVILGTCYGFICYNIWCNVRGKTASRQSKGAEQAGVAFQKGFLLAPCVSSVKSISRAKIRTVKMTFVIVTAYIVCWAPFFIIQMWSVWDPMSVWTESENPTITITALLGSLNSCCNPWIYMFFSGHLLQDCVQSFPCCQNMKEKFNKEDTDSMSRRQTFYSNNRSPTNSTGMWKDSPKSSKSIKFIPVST
Chain of Histamine H2 receptor (P25021 whole entry): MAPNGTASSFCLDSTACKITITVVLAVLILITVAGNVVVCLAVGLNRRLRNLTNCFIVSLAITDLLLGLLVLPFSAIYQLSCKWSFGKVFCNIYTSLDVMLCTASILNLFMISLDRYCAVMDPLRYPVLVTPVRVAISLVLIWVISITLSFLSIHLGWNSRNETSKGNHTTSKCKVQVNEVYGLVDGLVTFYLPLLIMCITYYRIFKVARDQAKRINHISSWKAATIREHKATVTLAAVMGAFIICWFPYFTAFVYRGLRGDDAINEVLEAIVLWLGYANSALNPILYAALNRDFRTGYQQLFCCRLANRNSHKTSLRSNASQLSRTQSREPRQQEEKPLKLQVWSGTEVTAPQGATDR

COc1ccc2c(c1)c(CC(=O)O)c(C)n2C(=O)c1ccc(Cl)cc1 [INDOMETHACIN]
Not Active: IC50 [1] | Ki [1] | IC50 [2] | IC50 [3] | IC50 [4] | IC50 [5] | IC50 [6] | IC50 [7]

C[C@H]1O[C@@H](O[C@H]2[C@@H](O)C[C@H](O[C@H]3[C@@H](O)C[C@H](O[C@H]4CC[C@@]5(C)[C@H](CC[C@@H]6[C@@H]5CC[C@]5(C)[C@@H](C7=CC(=O)OC7)CC[C@]65O)C4)O[C@@H]3C)O[C@@H]2C)C[C@H](O)[C@@H]1O [DIGITOXIN]
Not Active: IC50 [1] | Ki [1] | IC50 [2] | IC50 [3] | IC50 [4] | IC50 [5] | IC50 [6] | IC50 [7]

S=C=Nc1cccc2ccccc12 [1-NAPHTHYLISOTHIOCYANATE]
Not Active: IC50 [1] | Ki [1] | IC50 [2] | IC50 [3] | IC50 [4] | IC50 [5] | IC50 [6] | IC50 [7]

C[C@]12CC[C@@H]3c4ccc(O)cc4CC[C@H]3[C@@H]1CC[C@@H]2O [ESTRADIOL]
Not Active: IC50 [1] | Ki [1] | IC50 [2] | IC50 [3] | IC50 [4] | IC50 [5] | IC50 [6] | IC50 [7]

CCOC(=O)C1=C(C)NC(C)=C(C(=O)OC)C1c1cccc([N+](=O)[O-])c1 (configuration not stated) [NITRENDIPINE]
Not Active: IC50 [1] | Ki [1] | IC50 [2] | IC50 [3] | IC50 [4] | IC50 [5] | IC50 [6] | IC50 [7]

CC1=C(C(=O)O)N2C(=O)[C@@H](NC(=O)[C@H](N)c3ccccc3)[C@H]2SC1 [CEPHALEXIN ANHYDROUS]
Not Active: IC50 [1] | Ki [1] | IC50 [2] | IC50 [3] | IC50 [4] | IC50 [5] | IC50 [6] | IC50 [7]

CN(C)/N=N/c1[nH]cnc1C(N)=O [DACARBAZINE]
Not Active: IC50 [1] | Ki [1] | IC50 [2] | IC50 [3] | IC50 [4] | IC50 [5] | IC50 [6] | IC50 [7]

COc1ccc2c(c1)[C@]13CCCC[C@@H]1[C@H](C2)N(C)CC3 [DEXTROMETHORPHAN]
Not Active: IC50 [1] | Ki [1] | IC50 [2] | IC50 [3] | IC50 [4] | IC50 [5] | IC50 [6] | IC50 [7]

COc1ccccc1C(=O)N1CCC(Cc2ccccc2)CC1
Not Active: IC50 [1] | Ki [1] | IC50 [2] | IC50 [3] | IC50 [4] | IC50 [5] | IC50 [6] | IC50 [7]

C=C1CC[C@H](O)C/C1=C/C=C1\CCC[C@]2(C)[C@@H]([C@H](C)CCCC(C)C)CC[C@@H]12 [CHOLECALCIFEROL]
Not Active: IC50 [1] | Ki [1] | IC50 [2] | IC50 [3] | IC50 [4] | IC50 [5] | IC50 [6] | IC50 [7]

COc1cc2c(c3oc(=O)c4c(c13)CCC4=O)[C@@H]1C=CO[C@@H]1O2 [AFLATOXIN]
Not Active: IC50 [1] | Ki [1] | IC50 [2] | Ki [2] | IC50 [3] | Ki [3] | IC50 [4] | Ki [4] | IC50 [5] | Ki [5] | IC50 [6] | Ki [6] | IC50 [7] | Ki [7]

COc1ccc2cc([C@H](C)C(=O)O)ccc2c1 [NAPROXEN]
Not Active: IC50 [1] | Ki [1] | IC50 [2] | IC50 [3] | IC50 [4] | IC50 [5] | IC50 [6] | IC50 [7]

CC(C)Cc1ccc(C(C)C(=O)O)cc1 (configuration not stated) [IBUPROFEN]
Not Active: IC50 [1] | Ki [1] | IC50 [2] | IC50 [3] | IC50 [4] | IC50 [5] | IC50 [6] | IC50 [7]

CC(C)(C(=O)c1cccnc1)c1cccnc1 [METYRAPONE]
Not Active: IC50 [1] | Ki [1] | IC50 [2] | IC50 [3] | IC50 [4] | IC50 [5] | IC50 [6] | IC50 [7]

Cc1ncc([N+](=O)[O-])n1CCO [METRONIDAZOLE]
Not Active: IC50 [1] | Ki [1] | IC50 [2] | IC50 [3] | IC50 [4] | IC50 [5] | IC50 [6] | IC50 [7]

C[C@@H](O)[C@H](CO)NC(=O)[C@@H]1CSSC[C@H](NC(=O)[C@H](N)Cc2ccccc2)C(=O)N[C@@H](Cc2ccccc2)C(=O)N[C@H](Cc2c[nH]c3ccccc23)C(=O)N[C@@H](CCCCN)C(=O)N[C@@H]([C@@H](C)O)C(=O)N1 (H-[dF]CF[dW]KTC-{Threoninol(2S,3R)}; disulfide 2-7)
Not Active: IC50 [1] | Ki [1] | IC50 [2] | IC50 [3] | IC50 [4] | IC50 [5] | IC50 [6] | IC50 [7]

COc1ccc2[nH]c([S+]([O-])Cc3ncc(C)c(OC)c3C)nc2c1 (configuration not stated) [OMEPRAZOLE]
Not Active: IC50 [1] | Ki [1] | IC50 [2] | IC50 [3] | IC50 [4] | IC50 [5] | IC50 [6] | IC50 [7]
